According to PMC3989207, “Subchronic Toxicological Study of Two Artemisinin Derivatives in Dogs” (PLoS ONE, 2014):
Read-outs that look alike come from different tables or passages of the source.

Tests used:
[1] = test system: Dogs; parameters: method as in PMID 8053022, PMID 8053028, PMID 7943542; conditions: for 4 weeks; cited from earlier work
[2] = parameters: method as in PMID 11060779; conditions: cited from earlier work
[3] = test system: beagle dogs; assay: Electrocardiography in the 13-week repeated-dose dog study; assay type: in vivo; conditions: 6 mg kg^-1 per day p.o.; weeks 3 and 5 in males, weeks 5–9 in females (p<0.01), late stages (p<0.05)
Procedure: (§1) The first day of treatment was regarded as day one in the study. […] Oral administration was performed about 2 h after feeding. ARM was administered by a bolus intramuscular infusion through a 25-gauge needle at a constant volume of 2 ml kg^−1 once a day into the gluteal and infraspinous muscles. Two dogs of each sex from each group were allowed to recover without further treatment for an additional 4 weeks.
Electrocardiograms were recorded using an Auto Electrocardiogram (ECG-9130P, Nihon Kohden Corporation, Japan). Recordings were taken from each dog, while conscious, every 2 weeks from week-1. Leads I, II, III, aVR, aVL and aVF were utilized. The electrocardiography (ECG) parameters included heart rate, PR, QRS and QT interval, and QRS and T wave amplitudes. As the PQ and QT intervals vary with heart rate, they were adjusted to an RR-interval of 500 ms, corresponding to a heart rate of 120 bpm using the following equation: QT500 = QT – 0.084×(RR – 500).

[4] = test system: beagle dogs; assay: Clinical chemistry in the 13-week repeated-dose dog study; assay type: in vivo
Procedure: as §1
(§2) Blood samples were collected from the femoral vein of each dog prior to treatment and every 2 weeks after the first day of treatment. Hematology parameters were measured using an automated hematology analyzer (Sysmex, XT-2000iv, Toa Medical Electronics Co. Ltd., Kobe, Japan) using standard methods. Test parameters included hemoglobin (Hb) levels, the hematocrit (Hct) fraction, erythrocyte (RBC) count, leukocyte (WBC) count, neutrophilic granulocyte fraction (NE%), monocyte fraction (MO%), lymphocyte levels (LY%), platelet count (PLT), reticulocyte count (RET%) and RBC morphology. The following clinical chemistry parameters were measured using a Hitachi-7180 Chemistry Analyzer (High-Technologies Corporation, Tokyo, Japan) and standard methods: glucose, blood urea nitrogen, inorganic phosphorus, creatinine, total protein, albumin, calcium, aspartate aminotransferase (AST), alanine aminotransferase, alkaline phosphatase, total bilirubin, creatine kinase (CK), sodium, potassium and chloride.

[5] = test system: beagle dogs; assay: Hematology in the 13-week repeated-dose dog study; assay type: in vivo
Procedure: as §1, §2
The differential granulocytic and erythrocytic series (erythroid, myeloid blast cell count and the red ratio) were determined manually from blood smears.

[6] = Toxicokinetic analysis of plasma drug levels (HPLC); assay type: in vivo, dog; conditions: both sexes, beagle, dog, plasma, other: ART p.o., ARM i.m., 6 mg/kg, ARM i.m.; for AUC: 6 mg kg^−1 daily, ART p.o., dog plasma
Procedure: as §1
For toxicokinetic analysis, blood samples were collected on weeks 1, 2, 4, 8 and 13 at 0 (before dosing), 0.5, 1, 2, 4, 8, 12 and 24 h after dosing. Approximately 1 ml blood was drawn from the antebrachial, cephalic or jugular vein of three animals of each sex per time point and deposited into heparinized tubes for immediate centrifugation at 3000 rpm at 4°C for 10 min. The plasma was then immediately transferred to 2 ml polypropylene tubes and stored on dry ice. Samples were stored at −80°C until HPLC analysis.

[7] = test system: beagle dogs; assay: Pathologic (histopathological) examination of organs, brain and cardiac conduction system; assay type: in vivo, dog
Procedure: as §1
Termination of treatment was scheduled to occur on weeks 4, 8 (two interim necropsies) and 13, followed by a 4-week recovery period. For pathological examinations, the animals were euthanized within 24 h of the final drug administration with sodium pentobarbital, followed by exsanguination via the femoral artery. A gross necropsy was performed, including a thorough visual examination of all the internal organs. Weights were obtained for the brain, heart, liver, spleen, lung, kidneys, adrenals, thyroid/parathyroids, thymus, pancreas and ovaries/testes/prostate, and organ-to-body weight ratios were calculated. For each animal, representative samples from approximately 48 organs and tissues were taken and fixed in neutral buffered 10% formalin, except for the sternum, which was retained in Helly’s fixative (1000 ml distilled water, 25 g potassium dichromate, 10 g sodium sulfate, 50 g mercuric chloride, 50 ml 40% formaldehyde). Histopathological sections of all samples were prepared by embedding in paraffin wax, multiple-sectioning and staining with hematoxylin and eosin (HE). Samples of the left ventricular myocardium, right lateral hepatic lobe and right kidney from two animals of each sex from each group were fixed immediately after exsanguination in 2.5% glutaraldehyde, post-fixed in 1.0% osmium tetroxide, and embedded in plastic. Ultrathin liver, kidney and heart sections were examined with a Hitachi H-600 transmission electron microscope (TEM). All other tissues were examined by light microscopy.
After removal, the cardiac conduction system, including the sinoatrial node (SAN) and atrioventricular node (AVN), were selected by the Palate method. The brain was sectioned at multiple transverse levels to obtain susceptible brain regions. To improve the definition of the brain lesions, toluidine stains were applied on selected duplicate sections, and all preparations were examined under a light microscope. For pathologic examinations, degenerative neurons were evaluated on three randomly selected brain sections. The adjacent fields of neurons in each selected section were counted using a microscope at a magnification of 200×. […] The severity of the neuropathological lesions was defined as follows: the total number of neuropathological lesions per section area yielded a severity score from 0 to 4, where 0 = unaffected, 1 = minimally affected neurons with one degenerative cell per section, 2 = two degenerative cells per section, 3 = three degenerative cells per section and 4 = multiple degenerative areas per section.

[8] = test system: beagle dogs; assay: Ultra-structural examination of liver, kidney and heart by transmission electron microscopy; assay type: in vivo, dog; conditions: weeks 4, 8 and 13; TEM
Procedure: as §1
Termination of treatment was scheduled to occur on weeks 4, 8 (two interim necropsies) and 13, followed by a 4-week recovery period. For pathological examinations, the animals were euthanized within 24 h of the final drug administration with sodium pentobarbital, followed by exsanguination via the femoral artery. A gross necropsy was performed, including a thorough visual examination of all the internal organs. Weights were obtained for the brain, heart, liver, spleen, lung, kidneys, adrenals, thyroid/parathyroids, thymus, pancreas and ovaries/testes/prostate, and organ-to-body weight ratios were calculated. For each animal, representative samples from approximately 48 organs and tissues were taken and fixed in neutral buffered 10% formalin, except for the sternum, which was retained in Helly’s fixative (1000 ml distilled water, 25 g potassium dichromate, 10 g sodium sulfate, 50 g mercuric chloride, 50 ml 40% formaldehyde). […]

[9] = parameters: method as in Teja-Isavadharm et al. (1996); conditions: after oral administration compared with i.m. injection of ARM in an oil-based vehicle; ref Teja-Isavadharm et al. (1996); cited from earlier work
[10] = Week 13, females, 6 mg kg^-1 per day
[11] = week 2 until week 10 post-treatment, vs control groups (p<0.05)
[12] = Week 4, 6 mg kg^-1 per day (ART p.o., ARM i.m.)
[13] = Week 8, 6 mg kg^-1 per day (ART p.o., ARM i.m.)
[14] = Week 13, 6 mg kg^-1 per day (ART p.o., ARM i.m.)
[15] = Week 17 (after 4-week recovery)
[16] = both treated groups, no significant differences

CCO[C@H]1O[C@@H]2O[C@@]3(C)CC[C@H]4[C@H](C)CC[C@@H]([C@H]1C)[C@@]24OO3 [ARE, arteether]
calculated average minimal daily dose necessary to produce toxicity observable by histopathology [1]: 6 mg kg^−1
solubility character [2]: fat soluble

C[C@H]1[C@H](OC(=O)CCC(=O)O)O[C@@H]2O[C@@]3(C)CC[C@H]4[C@H](C)CC[C@@H]1[C@@]24OO3 [ART, artesunate]
heart rate during treatment [3]: statistically significant decrease
Clinical chemistry (overall) ([4]; Week 8, 6 mg kg^-1 per day): - (“-” = No effect)
Clinical chemistry: Alb(F) [4, 10]: ↓TP(F), ↓Alb(F)
Clinical chemistry: TP(F) [4, 10]: ↓TP(F), ↓Alb(F)
serum albumin levels ([4]; weeks 10 and 12): significant decrease
Hematology: Hb ([5]; Week 4, 6 mg kg^-1 per day): ↓Hct, ↓Hb
Hematology: Hct ([5]; Week 4, 6 mg kg^-1 per day): ↓Hct, ↓Hb
Hematology: Hb ([5]; Week 8, 6 mg kg^-1 per day): ↓Hct, ↓Hb, ↓MCV
Hematology: Hct ([5]; Week 8, 6 mg kg^-1 per day): ↓Hct, ↓Hb, ↓MCV
Hematology: MCV ([5]; Week 8, 6 mg kg^-1 per day): ↓Hct, ↓Hb, ↓MCV
Hematology: Hb ([5]; Week 13, 6 mg kg^-1 per day): ↓Hct, ↓Hb
Hematology: Hct ([5]; Week 13, 6 mg kg^-1 per day): ↓Hct, ↓Hb
MO% ([5]; males and females, after weeks 2 and 4 (p<0.05)): significant increases
Hb levels ([5]; week 2): corresponding decrease
RBC counts ([5]; week 2): decrease
LY% [5, 11]: decreased
NE% [5, 11]: significantly increased
WBC count [5, 11]: significantly increased
AUC ([6]; week 8, read-out: AUC8w): 580 ± 211 ng·h/mL
AUC ([6]; week four, read-out: AUC4w): 1270 ± 539 ng·h/mL
AUC(0-t) ([6]; read-out: AUC93D): 729 ± 440 ng·h/mL
neurotoxicity ([7]; 6 mg kg^-1 per day p.o. for 13 weeks): not observed
Cardiac conduction system foci (dogs affected/examined) [7, 12]: 0
Extramedullary hematopoiesis (dogs affected/examined) [7, 12]: 3/4
Hepatocyte necrosis (dogs affected/examined) [7, 12]: 0
Inhibition of erythropoiesis (dogs affected/examined) [7, 12]: 2/4
Neuronal necrosis (dogs affected/examined) [7, 12]: 0
Tubular cell degeneration (dogs affected/examined) [7, 12]: 2/4
Cardiac conduction system foci (dogs affected/examined) [7, 13]: 1/4
Extramedullary hematopoiesis (dogs affected/examined) [7, 13]: 1/4
Hepatocyte necrosis (dogs affected/examined) [7, 13]: 0
Inhibition of erythropoiesis (dogs affected/examined) [7, 13]: 0
Neuronal necrosis (dogs affected/examined) [7, 13]: 0
Tubular cell degeneration (dogs affected/examined) [7, 13]: 3/4
Cardiac conduction system foci (dogs affected/examined) [7, 14]: 2/4
Extramedullary hematopoiesis (dogs affected/examined) [7, 14]: 0
Hepatocyte necrosis (dogs affected/examined) [7, 14]: 0
Inhibition of erythropoiesis (dogs affected/examined) [7, 14]: 0
Neuronal necrosis (dogs affected/examined) [7, 14]: 0
Tubular cell degeneration (dogs affected/examined) [7, 14]: 0
Cardiac conduction system foci (dogs affected/examined) [7, 15]: 0
Extramedullary hematopoiesis (dogs affected/examined) [7, 15]: 0
Hepatocyte necrosis (dogs affected/examined) [7, 15]: 0
Inhibition of erythropoiesis (dogs affected/examined) [7, 15]: 0
Neuronal necrosis (dogs affected/examined) [7, 15]: 0
Tubular cell degeneration (dogs affected/examined) [7, 15]: 1/4
histological examination of sternal bone marrow [7, 16]: mild inhibition of erythropoiesis and a decreased count of mature erythrocytes
spleen histology [7, 16]: extramedullary hematopoiesis was observed in the spleen
histopathological changes in the kidneys ([7]; vs control groups): tubular epithelium vacuolation and necrosis
ultra-structural findings in hepatocytes, myocardial cells and proximal tubules in the kidney [8]: Mitochondrial bending and distortion and swollen vacuoles
solubility character [2]: water soluble
decline of plasma concentrations [9]: declined much faster after oral administration

C[C@H]1[C@@H](O)O[C@@H]2O[C@@]3(C)CC[C@H]4[C@H](C)CC[C@@H]1[C@@]24OO3 [DHA, dihydroartemisinin]
decline of plasma concentrations [9]: declined much faster after oral administration
